Source: US20240108634A1, “COMPOSITIONS AND METHODS FOR INHIBITING YAP” (The United States Government as represented by the …, priority 2021, published 2024)

Columns and labels:
Type in all cases: cell-based, human
T98G cells = experiment: Cell Titer-Glo sensitivity of T98G cells with YAP1 knockdown or overexpression; conditions: 72 h
From the text: Nuclear and cytoplasmic fractions were immunoblotted for YAP, HSP90 and lamin B2. FIG. 4B show quantification of nuclear YAP expression levels from a as determined by densitometric analyses. Relative nuclear YAP1 expression in U87 cells was arbitrarily assigned a value of 1. Nuclear YAP expression in the cell lines is shown as mean+S.D., n=3. […] Relative nuclear YAP expression was obtained from FIG. 4B above. […] Data represent mean±S.D. of three independent experiments (*, P<0.05).
(§1) Cell proliferation, clonogenic, migration, invasion and apoptosis assays. Cell proliferation was determined via Cell Titer-Glo® luminescent cell assays (Promega). Clonogenic assays were done by plating a total of 1,000 cells per well in 24-well plates in a total volume of 400 μL using a two-layered soft agar system as previously described (Masri J, et al. (2007) Cancer Res 67: 11712-11720). […]
Increased YAP expression directly correlates with NSC682769 sensitivity in GBM cells. […] To examine whether differences in YAP expression may alter sensitivity to NSC682769, the relative expression of nuclear versus cytoplasmic YAP was determined in a panel of GBM lines (FIG. 4A). […] Cell viability was then determined using ATP-release assays on these lines over a wide range of NSC682769 concentrations and IC50s calculated (FIG. 4C). […]

LN229 and GBM39 cells [1] = experiment: Matrigel invasion assay; conditions: Matrigel-coated membranes
From the text: (§2) Cells were layered in soft agar to evaluate anchorage-independent growth in the presence of the indicated concentrations of inhibitor and colonies counted following 14 days of growth. Representative crystal violet stained images are shown below. Data represent mean+S.D. of three independent experiments. […] Cells were placed in Boyden chambers and allowed to migrate towards BSA (white bars), vitronectin (light yellow bars), or fibronectin (dark yellow bars) (*, P<0.05; n=3). […] Representative crystal violet stained images are shown (200×). Data represent mean+S.D. of three independent experiments. […] Graphical data shown below represent mean+S.D. (late apoptosis; annexin V-positive, PI-positive) of three independent experiments.
as §1, with “11712-11720). Cell migration assays were conducted using precoated modified Boyden chambers as previously described (Benavides-Serrato A, et al. (2017) PLoS One 12: e0176599).” for “11712-11720).”

LN229 and GBM39 cells [2] = experiment: Soft agar colony formation (anchorage-independent growth); conditions: LN229 and GBM39, 14 days
From the text: as §2
as §1, with “11712-11720). Cell migration assays were conducted using precoated modified Boyden chambers as previously described (Benavides-Serrato A, et al. (2017) PLoS One 12: e0176599).” for “11712-11720).”

With `COc1ccc(-c2cc(-c3ccccc3)nc3c2CC(=O)Nc2ccccc2-3)cc1OC` [NSC682769] the “Sensitivity versus parental T98G line” value (T98G cells; T98G with YAP1 knocked down (shRNA)) was “relatively resistant”, the “Sensitivity versus parental T98G line” value (T98G cells; T98G with YAP1 overexpressed) was “significantly more sensitive” and the Cell invasiveness (LN229 and GBM39 cells [1]) was “reduced the number of cells able to traverse Matrigel-coated membranes”. The “Clonogenic growth in soft agar” value (LN229 and GBM39 cells [2]) was “inhibited”.
